Source: patent publication US20060265770A1, “Transgenic mice containing glutamate receptor (GRIK5) gene disruptions” (priority 2000, published 2006)

System: F2N1 Male Mice
Experiment: Metrazol Test (seizure susceptibility, tail vein infusion)
Assay type: in vivo, mouse
Conditions: for dose at death, Average ± Stdev / dose at first twitch, Average ± Stdev / dose at tonic extension, Average ± Stdev / dose at tonic/clonic seizure, Average ± Stdev: 5 mg/mL Metrazol infused through tail vein at 0.375 mL/min
Experimental: A metrazol administration test can be used to screen animals for varying susceptibilities to seizures or similar events. For example, a 5 mg/ml solution of metrazol can be infused through the tail vein of a mouse at a rate of, e.g., approximately 0.375 ml/min. The infusion will cause all mice to experience seizures, followed by death. Those mice that enter the seizure stage the soonest are believed to be more prone to seizures.
To screen for phenotypes involving changes in seizure susceptibility, the Metrazol Test was used. A 5 mg/mL solution of Metrazol was infused through the tail vein of the mouse at a constant rate of 0.375 mL/min. The infusion causes all mice to experience seizures. Those mice who enter the seizure stage the quickest are thought to be more prone to seizures in general.
To screen for phenotypes involving epilepsy, the Metrazol was used. Seven to ten adult wild-type and homozygote males were used. A fresh solution of 5 mg/ml pentylenetetrazole in 0.9% NaCl was prepared prior to testing. Mice were weighed and loosely held in a restrainer. After exposure to a heat lamp to dilate the tail vein, mice were continuously infused with the pentylenetetrazole solution using a syringe pump set at a constant flow rate. The following stages were recorded: first twitch (sometimes accompanied by a squeak), beginning of the tonic/clonic seizure, tonic extension and survival time. The dose required for each phase is determined and the latency to each phase was determined between genotypes. Alterations in any stage may indicate an overall imbalance in excitatory or inhibitory neurotransmitter levels. When compared to age- and gender-matched wild-type (+/+) control mice, homozygous mutant (−/−) mice required a lower dose of metrazol to induce a tonic/clonic seizure (FIG. 5 and Table 1), indicating an increased susceptibility to seizure.

[1] = GRIK5 homozygous mutant (−/−) F2N1 male mice

SMILES: C1CCc2nnnn2CC1 [Metrazol, pentylenetetrazole]
- dose at death, Average ± Stdev [1]: 136.12 ± 27.18 mg/kg
- dose at first twitch, Average ± Stdev [1]: 26.38 ± 2.59 mg/kg
- dose at tonic extension, Average ± Stdev [1]: 115.34 ± 28.63 mg/kg
- dose at tonic/clonic seizure, Average ± Stdev [1]: 34.02 ± 6.24 mg/kg
- dose of metrazol to induce a tonic/clonic seizure, in words (homozygous mutant (−/−) mice compared to age- and gender-matched wild-type (+/+) control mice): lower dose
- dose at death, Average ± Stdev (wild-type (+/+) F2N1 male mice): 134.29 ± 31.19 mg/kg
- dose at first twitch, Average ± Stdev (wild-type (+/+) F2N1 male mice): 29.73 ± 3.85 mg/kg
- dose at tonic extension, Average ± Stdev (wild-type (+/+) F2N1 male mice): 112.07 ± 29.70 mg/kg
- dose at tonic/clonic seizure, Average ± Stdev (wild-type (+/+) F2N1 male mice): 44.59 ± 9.74 mg/kg
